Results as given in ChEMBL document CHEMBL1145250, “Discovery of 4-(dimethylamino)quinazolines as potent and selective antagonists for the melanin-concentrating hormone receptor 1” (Bioorg Med Chem Lett, 2005).

Key:
[1] = biological target: T1, Melanin-concentrating hormone receptor 1 (Homo sapiens, UniProt Q99705); assay: Inhibitory activity against mutated constitutively activated human Melanin concentrating hormone receptor 1 (CA-MCH-R1) stably expressed in HEK293 cells using [125I](Phe13, Tyr19) MCH; type: cell-based
Target sequence in this assay (Q99705 whole entry, looked up): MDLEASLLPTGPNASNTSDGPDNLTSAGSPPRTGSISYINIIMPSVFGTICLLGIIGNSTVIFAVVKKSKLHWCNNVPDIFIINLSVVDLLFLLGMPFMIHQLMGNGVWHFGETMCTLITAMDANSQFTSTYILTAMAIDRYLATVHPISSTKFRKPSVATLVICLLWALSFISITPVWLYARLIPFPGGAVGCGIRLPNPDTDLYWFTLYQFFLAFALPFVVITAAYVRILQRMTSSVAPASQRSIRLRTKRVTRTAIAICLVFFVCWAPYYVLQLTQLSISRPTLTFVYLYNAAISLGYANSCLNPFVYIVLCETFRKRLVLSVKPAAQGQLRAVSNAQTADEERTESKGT

[2] = biological target: Alpha-2A adrenergic receptor (Homo sapiens, UniProt P08913); assay: Inhibitory activity against constitutively activated human Alpha-2A adrenergic receptor transiently expressed in COS-1 cells using [3H]MK-912; type: cell-based
Chain of Alpha-2A adrenergic receptor (P08913 whole entry, looked up): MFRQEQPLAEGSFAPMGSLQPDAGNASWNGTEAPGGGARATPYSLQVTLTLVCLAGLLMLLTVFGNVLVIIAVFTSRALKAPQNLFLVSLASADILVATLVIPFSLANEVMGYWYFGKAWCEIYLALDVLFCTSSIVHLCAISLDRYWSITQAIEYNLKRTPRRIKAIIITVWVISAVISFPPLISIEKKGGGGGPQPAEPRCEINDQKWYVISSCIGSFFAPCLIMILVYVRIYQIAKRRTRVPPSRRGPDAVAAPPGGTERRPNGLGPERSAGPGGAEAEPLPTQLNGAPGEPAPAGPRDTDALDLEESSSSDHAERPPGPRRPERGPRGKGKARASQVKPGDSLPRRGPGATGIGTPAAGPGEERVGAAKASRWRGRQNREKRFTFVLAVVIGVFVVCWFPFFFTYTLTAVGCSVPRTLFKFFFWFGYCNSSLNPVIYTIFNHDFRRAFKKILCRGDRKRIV

[3] = biological target: T2, Neuropeptide Y receptor type 5 (Homo sapiens, UniProt Q15761); assay: Inhibitory activity against constitutively activated human Neuropeptide Y receptor Y5 transiently expressed in COS-1 cells using [125I]PYY; type: cell-based
T2 sequence (Q15761 whole entry): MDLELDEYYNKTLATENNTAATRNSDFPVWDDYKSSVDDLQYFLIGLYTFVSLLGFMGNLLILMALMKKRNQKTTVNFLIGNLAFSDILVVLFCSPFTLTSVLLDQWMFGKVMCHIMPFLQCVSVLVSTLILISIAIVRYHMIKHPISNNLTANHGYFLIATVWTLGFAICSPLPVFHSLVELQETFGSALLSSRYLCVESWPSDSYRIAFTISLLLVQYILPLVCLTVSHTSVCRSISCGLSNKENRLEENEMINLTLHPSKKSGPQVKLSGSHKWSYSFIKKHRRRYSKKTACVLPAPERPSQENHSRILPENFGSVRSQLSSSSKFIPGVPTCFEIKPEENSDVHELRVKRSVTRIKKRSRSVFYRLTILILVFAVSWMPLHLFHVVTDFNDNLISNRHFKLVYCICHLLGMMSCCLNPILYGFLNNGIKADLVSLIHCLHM

[4] = biological target: T1, Melanin-concentrating hormone receptor 1; assay: Inhibitory activity against mutated constitutively activated human Melanin concentrating hormone receptor 1 (CA-MCH-R1) stably expressed in HEK293 cells using [125I](Phe13, Tyr19) MCH (n=8); type: cell-based
Target sequence in this assay (Q99705 whole entry, looked up): as the sequence (Q99705 whole entry, looked up) above

[5] = biological target: T1, Melanin-concentrating hormone receptor 1; assay: Inhibitory activity against human wild type Melanin concentrating hormone receptor 1 (CA-MCH-R1) stably expressed in HEK293 cells using [125I](Phe13, Tyr19) MCH (n=3); type: cell-based
Target sequence in this assay (Q99705 whole entry): as the sequence (Q99705 whole entry, looked up) above

[6] = biological target: T1, Melanin-concentrating hormone receptor 1; assay: Inhibitory activity against human constitutively activated Melanin concentrating hormone receptor 1 induced calcium flux stably expressed in HEK293 cells (n=6)
Target sequence in this assay (Q99705 whole entry): as the sequence (Q99705 whole entry, looked up) above

IC50 [1] [nM] | IC50 [2] [nM] | IC50 [3] [nM] | IC50 [4] [nM] | IC50 [5] [nM] | IC50 [6] [nM] | Structure (SMILES)
6000 | 5.6 | 3000 |  |  |  | CN(C)c1nc(NCC2CCN(S(=O)(=O)c3ccc(Br)cc3OC(F)(F)F)CC2)nc2ccccc12
1500 | 110 | 150 |  |  |  | CN(C)c1nc(NC2CCC(CNS(=O)(=O)c3ccc(Br)cc3OC(F)(F)F)CC2)nc2ccccc12 (stereo not given)
> 10000 | 86 | 41 |  |  |  | CN(C)c1nc(NCC2CCC(CNS(C)(=O)=O)CC2)nc2ccccc12 (stereo not given)
250 | 170 | 8900 |  |  |  | CN(C)c1nc(NC2CCN(S(=O)(=O)c3ccc(Br)cc3OC(F)(F)F)CC2)nc2ccccc12
1900 | 100 | 1.6 |  |  |  | Nc1nc(NCC2CCC(CNS(=O)(=O)c3ccc(Br)cc3OC(F)(F)F)CC2)nc2ccccc12 (trans isomer)
 | 7.7 | 2.7 | 160 | 200 | 140 | CN(C)c1nc(NCC2CCC(CNS(=O)(=O)c3ccc(Br)cc3OC(F)(F)F)CC2)nc2ccccc12 (trans isomer)
2900 | 58 | 4.9 |  |  |  | CCCCS(=O)(=O)NCC1CCC(CNc2nc(N(C)C)c3ccccc3n2)CC1 (trans isomer)
2200 | 47 | 31 |  |  |  | CN(C)c1nc(NC2CCC(NS(=O)(=O)c3ccc(Br)cc3OC(F)(F)F)CC2)nc2ccccc12 (trans isomer)
810 | 21 | 2.5 |  |  |  | CN(C)c1nc(NCC2CCC(NS(=O)(=O)c3ccc(Br)cc3OC(F)(F)F)CC2)nc2ccccc12 (trans isomer)
6700 |  |  |  |  |  | CCCCCCCCS(=O)(=O)NCC1CCC(CNc2nc(N(C)C)c3ccccc3n2)CC1 (trans isomer)
> 10000 | 140 | 78 |  |  |  | O=S(=O)(NCC1CCC(CNc2ncc3ccccc3n2)CC1)c1ccc(Br)cc1OC(F)(F)F (trans isomer)
> 10000 |  |  |  |  |  | CC(C)S(=O)(=O)NCC1CCC(CNc2nc(N(C)C)c3ccccc3n2)CC1 (trans isomer)
3500 |  |  |  |  |  | Nc1nc(NC[C@H]2CC[C@H](CNS(=O)(=O)c3cccc4ccccc34)CC2)nc2ccccc12 [CGP-71683A]
